These results are taken from publication PMC5590679 (Journal of medicinal chemistry, 2017).

The test concerns Mtb BioA overexpression strain (BioA-OE). Description: microbe, parasite or virus in culture. The format is cell-based, Mycobacterium tuberculosis.

As for `CC(=O)c1ccc(N2CCN(C(=O)c3ccc4c(c3)OCO4)CC2)cc1` [Compound 6, 1-(4-(4-(Benzo[d][1,3]dioxole-5-carbonyl)piperazin-1-yl)phenyl)-ethanone], the MIC (Mycobacterium tuberculosis, read-out: MIC that results in 90% inhibition, BioA-OE) was greater than 50 µM.
With “(3-Chlorophenyl)(4-(5-methoxypyridin-2-yl)piperazin-1-yl)-methanone [Compound 22]”, the “MIC50 BioA-OE” value (MIC that results in 50% inhibition, […]) was greater than 50 µM.
